# Laboratory results as given in EPA's ToxValDB 9.5 (doi:10.2903/j.efsa.2013.3469).
# Tests used:
# Typhlodromus pyri [1] = assay: LR50; higher = less toxic; details: not reported; mortality
# Tagia sp. = details: acute, duration: 14 days
# Typhlodromus pyri [2] = details: not reported; mortality
# Anas platyrhynchos = details: oral, mortality
# Folsomia candida = details: chronic/long-term; mortality
# Daphnia magna = details: chronic/long-term; duration: 21 days; reproduction
# Bibionidae = details: chronic/long-term; duration: 28 days; development
# Apis mellifera = details: acute; oral; unspecified; mortality
smiles,measurement,setting,value
CC1(C)[C@H](C(=O)O[C@H](C#N)c2cccc(Oc3ccccc3)c2)[C@@H]1/C=C\C(=O)OC(C(F)(F)F)C(F)(F)F [Acrinathrin],LR50,Typhlodromus pyri [1],0.006 g/ha
same,NOEC,Tagia sp.; biomass,1.6 mg/kg
same,LC50,Tagia sp.; mortality,> 1000 mg/kg
same,LD50,"Rattus norvegicus; acute, oral, mortality",> 5000 mg/kg-day
same,NOAEL,"Rattus norvegicus; acute, oral, neurology",1 mg/kg-day
same,NOAEL,"Rattus norvegicus; reproduction developmental, no effects",9.4 mg/kg-day
same,NOEC,Typhlodromus pyri [2],0.00068 g/ha
same,LD50,"Colinus virginianus; acute, oral, mortality",> 2250 mg/kg-day
same,NOEC,"Colinus virginianus; reproduction developmental, reproduction",19.9 mg/kg-day
same,NOEC,"Colinus virginianus; short-term, oral, diet, mortality",325 mg/kg-day
same,LD50,"Anas platyrhynchos; acute, unspecified",> 2000 mg/kg-day
same,NOEC,"Anas platyrhynchos; short-term, feed",173 mg/kg-day
same,NOEC,Folsomia candida,< 1 mg/kg
same,NOEC,Daphnia magna,3.2e-06 mg/L
same,NOEC,Bibionidae,3.1e-05 mg/L
same,LC50,"Pimephales promelas; acute, duration: 96 hours, mortality",1.7 ng/mL
same,NOEC,"Pimephales promelas; chronic/long-term, duration: 28 days",1.1e-05 mg/L
same,LD50,Apis mellifera,0.077 µg/piece
